Where two headings read alike, the source gives them in different places.
Key:
Format in all cases: biochemical
[1] = molecular target: CDK4-CYCLIND1 (Homo sapiens, UniProt P11802); test: Microfluidic LabChip inhibition assay, CDK4-CYCLIND1; conditions: ATP 200 μM, second values in parentheses on the line below, not explained, read-out: CDK4 CyclinD1 IC50
Description: (§1) The reaction was terminated by the addition of EDTA. The plates were analyzed using a Caliper LabChip 3000.
(§2) Additional inhibition assays were performed as described above.

[2] = molecular target: CDK1/B (Homo sapiens, UniProt P06493); test: Inhibition assay, CDK1/B; conditions: read-out: CDK1/B IC50
Description: as §1, §2

[3] = molecular target: CDK2-CYCLINA (Homo sapiens, UniProt P24941); test: Microfluidic LabChip inhibition assay, CDK2-CYCLINA; conditions: ATP 50 μM
Description: as §1, §2

[4] = molecular target: CDK7 CyclinH (Homo sapiens, UniProt P50613); test: Inhibition assay, CDK7 CyclinH
Description: as §1, §2

[5] = molecular target: CDK9-CYCLINT1 (Homo sapiens, UniProt P50750); test: Microfluidic LabChip inhibition assay, CDK9-CYCLINT1; conditions: ATP 10 μM
Description: as §1, §2

Sequence of CDK9-CYCLINT1 (P50750 whole entry): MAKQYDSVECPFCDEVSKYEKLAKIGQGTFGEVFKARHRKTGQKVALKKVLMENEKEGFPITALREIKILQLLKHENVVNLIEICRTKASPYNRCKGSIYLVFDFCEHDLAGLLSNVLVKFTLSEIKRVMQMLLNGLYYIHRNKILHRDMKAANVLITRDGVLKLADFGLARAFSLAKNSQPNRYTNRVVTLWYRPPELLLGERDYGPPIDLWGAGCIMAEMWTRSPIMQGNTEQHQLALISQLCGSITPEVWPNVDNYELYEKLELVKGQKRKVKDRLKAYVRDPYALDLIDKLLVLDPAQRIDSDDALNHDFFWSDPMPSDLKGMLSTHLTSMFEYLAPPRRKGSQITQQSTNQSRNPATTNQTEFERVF
Sequence of CDK9-CYCLINT1 (O60563 whole entry partner): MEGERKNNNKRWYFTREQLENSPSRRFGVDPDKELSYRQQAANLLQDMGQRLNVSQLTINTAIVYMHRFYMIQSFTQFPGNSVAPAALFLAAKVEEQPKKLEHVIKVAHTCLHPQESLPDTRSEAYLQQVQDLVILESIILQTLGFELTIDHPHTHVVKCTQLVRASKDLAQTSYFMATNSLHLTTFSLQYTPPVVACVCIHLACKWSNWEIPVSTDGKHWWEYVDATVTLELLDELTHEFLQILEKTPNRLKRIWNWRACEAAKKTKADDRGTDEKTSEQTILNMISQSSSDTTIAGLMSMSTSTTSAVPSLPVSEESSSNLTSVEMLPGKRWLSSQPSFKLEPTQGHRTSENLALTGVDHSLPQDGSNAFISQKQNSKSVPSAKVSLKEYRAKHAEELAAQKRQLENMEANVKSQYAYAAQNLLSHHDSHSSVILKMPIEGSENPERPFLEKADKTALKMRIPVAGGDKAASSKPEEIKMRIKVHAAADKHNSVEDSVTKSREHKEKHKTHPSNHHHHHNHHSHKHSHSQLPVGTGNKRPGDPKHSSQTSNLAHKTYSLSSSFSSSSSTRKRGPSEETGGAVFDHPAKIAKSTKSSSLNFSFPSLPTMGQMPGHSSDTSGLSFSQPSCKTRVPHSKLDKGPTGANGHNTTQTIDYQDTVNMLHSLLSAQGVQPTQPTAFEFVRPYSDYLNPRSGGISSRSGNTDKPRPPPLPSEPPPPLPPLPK
Sequence of CDK4-CYCLIND1 (P11802 whole entry): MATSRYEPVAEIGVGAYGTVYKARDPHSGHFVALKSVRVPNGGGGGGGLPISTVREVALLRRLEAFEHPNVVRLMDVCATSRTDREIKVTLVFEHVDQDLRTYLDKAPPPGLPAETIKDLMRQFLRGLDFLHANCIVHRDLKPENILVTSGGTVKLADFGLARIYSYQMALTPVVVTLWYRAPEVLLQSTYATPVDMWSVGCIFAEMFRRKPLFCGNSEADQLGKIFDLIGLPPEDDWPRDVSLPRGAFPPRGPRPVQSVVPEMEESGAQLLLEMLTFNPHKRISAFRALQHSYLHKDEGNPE
Sequence of CDK4-CYCLIND1 (P24385 whole entry partner): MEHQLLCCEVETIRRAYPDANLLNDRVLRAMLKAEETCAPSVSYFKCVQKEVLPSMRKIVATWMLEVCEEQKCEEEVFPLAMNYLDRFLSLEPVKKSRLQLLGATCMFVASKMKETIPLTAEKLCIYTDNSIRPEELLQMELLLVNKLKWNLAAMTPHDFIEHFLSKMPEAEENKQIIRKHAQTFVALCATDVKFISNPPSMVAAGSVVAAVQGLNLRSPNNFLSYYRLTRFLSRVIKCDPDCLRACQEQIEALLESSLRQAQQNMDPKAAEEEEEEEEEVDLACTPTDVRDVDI
Sequence of CDK7 CyclinH (P50613 whole entry): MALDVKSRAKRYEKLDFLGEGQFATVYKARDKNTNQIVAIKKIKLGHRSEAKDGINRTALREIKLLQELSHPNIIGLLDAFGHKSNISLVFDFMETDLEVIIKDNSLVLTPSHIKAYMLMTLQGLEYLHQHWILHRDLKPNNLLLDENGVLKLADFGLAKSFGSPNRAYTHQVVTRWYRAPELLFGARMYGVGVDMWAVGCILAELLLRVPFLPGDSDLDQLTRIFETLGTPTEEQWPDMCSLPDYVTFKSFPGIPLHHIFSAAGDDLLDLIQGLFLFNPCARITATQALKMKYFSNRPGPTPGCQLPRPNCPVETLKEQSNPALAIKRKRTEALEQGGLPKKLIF
Sequence of CDK7 CyclinH (P51946 whole entry partner): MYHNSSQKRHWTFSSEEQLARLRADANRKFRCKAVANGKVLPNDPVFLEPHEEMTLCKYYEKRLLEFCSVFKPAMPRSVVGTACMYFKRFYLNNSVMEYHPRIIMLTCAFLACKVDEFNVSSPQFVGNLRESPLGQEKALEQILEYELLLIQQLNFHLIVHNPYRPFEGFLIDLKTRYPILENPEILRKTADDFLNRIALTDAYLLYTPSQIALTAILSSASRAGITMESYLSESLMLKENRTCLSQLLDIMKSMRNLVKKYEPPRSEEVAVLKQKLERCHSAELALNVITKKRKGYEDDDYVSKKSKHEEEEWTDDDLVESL
Sequence of CDK7 CyclinH (P51948 whole entry partner): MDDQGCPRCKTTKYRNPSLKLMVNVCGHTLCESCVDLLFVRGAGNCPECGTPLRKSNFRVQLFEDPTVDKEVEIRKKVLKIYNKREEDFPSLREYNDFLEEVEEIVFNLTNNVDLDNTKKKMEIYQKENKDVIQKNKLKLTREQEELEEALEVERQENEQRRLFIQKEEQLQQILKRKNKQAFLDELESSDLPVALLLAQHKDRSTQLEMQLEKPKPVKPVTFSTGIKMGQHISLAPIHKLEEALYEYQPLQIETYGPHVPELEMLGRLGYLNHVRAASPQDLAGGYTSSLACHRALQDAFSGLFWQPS
Sequence of CDK1/B (P06493 whole entry): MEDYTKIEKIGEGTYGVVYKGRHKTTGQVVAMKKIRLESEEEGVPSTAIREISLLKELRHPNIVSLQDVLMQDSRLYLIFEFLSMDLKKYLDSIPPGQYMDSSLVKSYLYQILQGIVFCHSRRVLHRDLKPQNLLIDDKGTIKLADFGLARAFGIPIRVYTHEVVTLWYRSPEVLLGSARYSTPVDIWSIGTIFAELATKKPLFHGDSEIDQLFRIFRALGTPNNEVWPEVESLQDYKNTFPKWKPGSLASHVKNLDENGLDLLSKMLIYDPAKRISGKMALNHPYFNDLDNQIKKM
Sequence of CDK1/B (P14635 whole entry partner): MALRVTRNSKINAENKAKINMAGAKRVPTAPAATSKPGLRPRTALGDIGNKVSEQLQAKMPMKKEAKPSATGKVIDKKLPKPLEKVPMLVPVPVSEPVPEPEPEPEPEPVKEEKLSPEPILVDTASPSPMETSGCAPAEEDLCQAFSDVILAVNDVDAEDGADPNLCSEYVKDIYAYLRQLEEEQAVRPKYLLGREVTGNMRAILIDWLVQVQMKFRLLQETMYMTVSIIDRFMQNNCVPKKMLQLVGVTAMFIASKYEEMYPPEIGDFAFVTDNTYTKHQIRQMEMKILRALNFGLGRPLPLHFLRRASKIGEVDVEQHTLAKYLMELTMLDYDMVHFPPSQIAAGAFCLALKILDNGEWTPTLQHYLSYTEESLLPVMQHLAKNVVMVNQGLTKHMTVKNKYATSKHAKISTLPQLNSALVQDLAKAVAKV

Structure (SMILES) | IC50 ([1]; Table 3a) | IC50 ([1]; Table 3b) | IC50 ([2]; Table 3a) | IC50 ([3]; Table 3a) | IC50 ([3]; Table 3b) | IC50 ([4]; Table 3a) | IC50 ([4]; Table 3b) | IC50 ([5]; Table 3a) | IC50 ([5]; Table 3b) | IC50 ([2]; Table 3b)
Cc1c(C(=O)N(C)C)c(=O)n(C23CC(C2)C3)c2nc(NC3CCN(S(C)(=O)=O)CC3)ncc12 [Compound B156, 8-(bicyclo[1.1.1]pentan-1-yl)-N,N,5-trimethyl-2-((1-(methylsulfonyl)piperidin-4-yl)amino)-7-oxo-7,8-dihydropyrido[2,3-d]pyrimidine-6-carboxamide] | 0.101 µM | 0.101 µM | 2.82 µM | 1.02 µM | 1.02 µM | > 10 µM | > 10 µM | > 10 µM | > 10 µM | –
Cc1c(C(=O)N(C)C)c(=O)n(C23CC(C2)C3)c2nc(NC3CC4CCC3C4)ncc12 (stereo not drawn) [Compound B157, 8-(bicyclo[1.1.1]pentan-1-yl)-2-(bicyclo[2.2.1]heptan-2-ylamino)-N,N,5-trimethyl-7-oxo-7,8-dihydropyrido[2,3-d]pyrimidine-6-carboxamide] | 1.25 µM | 1.25 µM | > 10 µM | 5.25 µM | 5.25 µM | > 10 µM | > 10 µM | 2.45 µM | 2.45 µM | > 10 µM
Cc1c(C(=O)N(C)C)c(=O)n(C23CC(C2)C3)c2nc(NC3CC4CCC3C4)ncc12 (stereo not drawn) [Compound B158, 8-(bicyclo[1.1.1]pentan-1-yl)-2-(bicyclo[2.2.1]heptan-2-ylamino)-N,N,5-trimethyl-7-oxo-7,8-dihydropyrido[2,3-d]pyrimidine-6-carboxamide] | 1.59 µM | 1.59 µM | > 10 µM | > 10 µM | > 10 µM | > 10 µM | – | 2.75 µM | 2.75 µM | –
CN1CC2(C1)CN(c1ccc(Nc3ncc4cc(C#N)c(=O)n(C5CCCC5)c4n3)cc1)C2 [Compound B159, 8-cyclopentyl-2-((4-(6-methyl-2,6-diazaspiro[3.3]heptan-2-yl)phenyl)amino)-7-oxo-7,8-dihydropyrido[2,3-d]pyrimidine-6-carbonitrile] | 0.00402 µM | 0.00402 µM | 1.3 µM | 0.5 µM | 0.5 µM | 2.42 µM | 2.42 µM | 0.0906 µM | 0.0906 µM | –

Reference: patent publication US20220220103A1, “CYCLIN-DEPENDENT KINASE INHIBITORS” (SPV THERAPEUTICS INC., priority 2018, published 2022)
